“Also recorded” adds a separate entry of the source.
Columns and labels:
[1] = system: Matrix Metalloproteinase-9 (MMP-9) mRNA; assay: MMP-9 mRNA in E. coli-treated HBE cells (dysbiosis model of lung epithelial cells), qRT-PCR; format: cell-based, human; settings: 4 hours at 37° C.
Description: In FIG. 2, human primary epithelial (HBE) cells were seeded on a 6 well plate with 4×10^5 cells in each well. 16 hours later, the medium was changed to fresh DULBECCO'S Modified Eagle Medium/Nutrient Mixture F-12 (DMEM/F12) without antibiotic, and E. coli was added to the cells at a final concentration of 5.0×10^7 E. coli cells/ml. L(+) Lactic acid was added together with E. coli at a final lactic acid concentration of 5 mM, 10 mM, or 20 mM. The cells were incubated at 37° C. for 4 hours and then harvested with QIAZOL reagent. RNA was extracted according to the QIAZOL protocol. The level of Matrix Metalloproteinase-9 (MMP-9) mRNA was measured by quantitative real-time PCR (qRT-PCR). In FIG. 5, human bronchial epithelial (HBE) cells were seeded on a 6 well plate with 4×10^5 cells in each well. 16 hours later, the medium was changed to fresh DULBECCO'S Modified Eagle Medium/Nutrient Mixture F-12 (DMEM/F12) without antibiotic, and E. coli was added to the cells at a final concentration of 5.0×10^7 E. coli cells/ml. D(−) Lactic acid was added together with E. coli at a final lactic acid concentration of 0.25 ug/mL, 0.5 ug/mL, or 2 μg/mL. The cells were incubated at 37° C. for 4 hours and then harvested with QIAZOL reagent. RNA was extracted according to the QIAZOL protocol. The level of Matrix Metalloproteinase-9 (MMP-9) mRNA was measured by quantitative real-time PCR (qRT-PCR).

MMP-9 mRNA = MMP-9 mRNA in A549 NSCLC adenocarcinoma cells inoculated with E. coli, real-time qPCR; format: cell-based; settings: 0.25 μg to 4 ug L-LA, 4 hours at 37° C.
Description: In FIG. 4, 2×10^5 A549 cells were seeded in 500 μL growth medium per each well of a 24-well plate. Cells were treated with: (1) 2 uL PBS (control), (2) 5×10^8 E. coli cells (E. coli), (3) or 5×10*8 cells E. coli with 0.25 ug, 0.5 ug, 1 ug, 2 ug, or 4 ug L-lactic acid. The cells were incubated for 4 hours at 37° C. Cells were harvested, RNA was extracted with an RNA extraction kit, the concentration of total RNA was measured, cDNA was obtained using a High-Capacity cDNA Reverse Transcription Kit, and then a TAQMAN real-time qPCR protocol was performed on the cDNA.

[2] = system: Matrix Metalloproteinase-9 (MMP-9) mRNA; assay: MMP-9 mRNA in Caco-2 intestinal epithelial cells inoculated with E. coli, qRT-PCR; format: cell-based, human; settings: Caco-2 cells inoculated with E. coli; L(+) lactic acid 1.5 mM, 3 mM or 6 mM; 4 hours at 37° C.
Description: In FIG. 3, human intestinal epithelial cells (IECs) from the Caco-2 cell line were seeded on a 6 well plate with 4×10^5 cells in each well. 16 hours later, the medium was changed to fresh DULBECCO'S Modified Eagle Medium/Nutrient Mixture F-12 (DMEM/F12) without antibiotic, and E. coli was added to the cells at a final concentration of 5.0×10^7 E. coli cells/ml. L(+) Lactic acid was added together with E. coli at a final lactic acid concentration of 1.5 mM, 3 mM, or 6 mM. The cells were incubated at 37° C. for 4 hours and then harvested with QIAZOL reagent. RNA was extracted according to the QIAZOL protocol. The level of Matrix Metalloproteinase-9 (MMP-9) mRNA was measured by quantitative real-time PCR (qRT-PCR).

[3] = pure water; cited from earlier work

**Q.** With `C[C@@H](O)C(=O)O` [D-lactic acid] as the compound, how does the “MMP-9 mRNA levels” value ([1]; HBE cells inoculated with E. coli, 0.25 μg to 2 ug D-LA) read?
**A.** Its value is “no statistical difference”.

**Q.** With `C[C@H](O)C(=O)O` [L-lactic acid] as the compound, how does the “MMP-9 mRNA levels” value ([1]; HBE cells treated with E. coli, L(+) lactic acid 5 mM, 10 mM or 20 mM) read?
**A.** Its value is “MMP-9 reduction; also recorded: decreased”.

**Q.** And the “MMP-9 mRNA levels” value (MMP-9 mRNA)?
**A.** Its value is “decreased”.

**Q.** What about the “MMP-9 mRNA levels” value [2] of the same compound?
**A.** Its value is “decreased”.

**Q.** For “Polyoxyethylene (20) sorbitan monooleate [polysorbate 80]”, which critical micelle concentration [3] is on record?
**A.** Its critical micelle concentration is 0.012 mM.
